We go through 20 molecules from ChEMBL document CHEMBL1201862, “PubChem BioAssay data set” (2004).

A short description of assay [1]: cells. The format is functional, cell-based.
The nature of assay [2]: cells. The format is functional, cell-based. This is another data set of the same source.
The target in assay [3] is T1, RNA-binding protein pos-1 (Caenorhabditis elegans, UniProt G5EF15).
T1 sequence (G5EF15 whole entry): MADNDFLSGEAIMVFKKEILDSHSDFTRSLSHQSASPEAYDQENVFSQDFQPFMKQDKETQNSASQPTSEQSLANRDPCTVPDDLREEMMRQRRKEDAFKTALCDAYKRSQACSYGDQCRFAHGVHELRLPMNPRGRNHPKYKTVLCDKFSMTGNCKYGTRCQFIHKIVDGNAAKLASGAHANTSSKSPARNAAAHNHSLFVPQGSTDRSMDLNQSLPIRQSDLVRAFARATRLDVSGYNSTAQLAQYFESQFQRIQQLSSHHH
Kind of assay: inhibitors of POS-1/mex-3 RNA binding, dose response, biochemical, fluorescence polarization (AID 1964).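 Also: purified POS-1 fused to maltose binding protein made in E. coli; potency of compounds blocking POS-1 binding to fluorescent RNA.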 A general note: Polarisation of emitted light reports the rotation of a fluorescent probe.

Assay [4] has as its target T2, Zinc finger protein mex-5 (Caenorhabditis elegans, UniProt Q9XUB2).
T2 sequence (Q9XUB2 whole entry): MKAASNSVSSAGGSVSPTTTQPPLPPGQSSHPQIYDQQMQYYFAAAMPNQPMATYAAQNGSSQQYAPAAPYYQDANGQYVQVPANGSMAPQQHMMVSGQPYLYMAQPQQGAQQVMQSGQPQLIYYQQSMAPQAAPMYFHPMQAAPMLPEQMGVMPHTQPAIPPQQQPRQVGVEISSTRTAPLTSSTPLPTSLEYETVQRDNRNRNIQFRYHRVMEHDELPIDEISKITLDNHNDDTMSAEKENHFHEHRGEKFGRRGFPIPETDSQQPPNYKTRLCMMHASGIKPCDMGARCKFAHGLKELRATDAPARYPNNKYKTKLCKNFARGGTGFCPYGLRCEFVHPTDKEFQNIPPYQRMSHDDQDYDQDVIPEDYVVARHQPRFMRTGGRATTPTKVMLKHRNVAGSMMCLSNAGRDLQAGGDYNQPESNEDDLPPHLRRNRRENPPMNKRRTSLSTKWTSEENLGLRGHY
Kind of assay: MEX-5/TCR-2 RNA interaction inhibitors, dose response, biochemical, C. elegans, fluorescence polarization (AID 1960).

Assay [5] addresses T3, Heat shock factor protein 1 (Mus musculus, UniProt P38532).
T3 sequence (P38532 whole entry): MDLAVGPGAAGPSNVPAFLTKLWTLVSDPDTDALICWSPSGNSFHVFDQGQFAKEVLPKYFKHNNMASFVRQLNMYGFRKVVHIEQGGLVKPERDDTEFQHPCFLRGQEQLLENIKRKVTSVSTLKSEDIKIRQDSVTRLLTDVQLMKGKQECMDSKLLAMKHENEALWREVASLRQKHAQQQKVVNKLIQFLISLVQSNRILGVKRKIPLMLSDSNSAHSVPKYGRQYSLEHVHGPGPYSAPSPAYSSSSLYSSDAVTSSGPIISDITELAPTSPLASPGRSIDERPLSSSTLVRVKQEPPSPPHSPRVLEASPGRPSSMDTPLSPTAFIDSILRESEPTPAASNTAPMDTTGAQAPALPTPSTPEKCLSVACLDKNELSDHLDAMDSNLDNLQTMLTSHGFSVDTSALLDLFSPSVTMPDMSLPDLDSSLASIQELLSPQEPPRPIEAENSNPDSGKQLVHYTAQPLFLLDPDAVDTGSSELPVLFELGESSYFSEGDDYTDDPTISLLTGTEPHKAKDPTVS
In words: inhibition of MG132-induced HSE-luciferase signal, confirmation, cell-based, NIH3T3, luminescence, dose retest (AID 2382).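 Also: NIH3T3 fibroblasts with HSF1-driven luciferase reporter stressed by proteasome inhibitor MG132; luminescence from HSF1-driven luciferase expression after 8 hours of MG132 stress.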 Type of assay: functional.

Assay [6] deals with T4, Sentrin-specific protease 6 (Homo sapiens, UniProt Q9GZR1).
T4 sequence (Q9GZR1 whole entry): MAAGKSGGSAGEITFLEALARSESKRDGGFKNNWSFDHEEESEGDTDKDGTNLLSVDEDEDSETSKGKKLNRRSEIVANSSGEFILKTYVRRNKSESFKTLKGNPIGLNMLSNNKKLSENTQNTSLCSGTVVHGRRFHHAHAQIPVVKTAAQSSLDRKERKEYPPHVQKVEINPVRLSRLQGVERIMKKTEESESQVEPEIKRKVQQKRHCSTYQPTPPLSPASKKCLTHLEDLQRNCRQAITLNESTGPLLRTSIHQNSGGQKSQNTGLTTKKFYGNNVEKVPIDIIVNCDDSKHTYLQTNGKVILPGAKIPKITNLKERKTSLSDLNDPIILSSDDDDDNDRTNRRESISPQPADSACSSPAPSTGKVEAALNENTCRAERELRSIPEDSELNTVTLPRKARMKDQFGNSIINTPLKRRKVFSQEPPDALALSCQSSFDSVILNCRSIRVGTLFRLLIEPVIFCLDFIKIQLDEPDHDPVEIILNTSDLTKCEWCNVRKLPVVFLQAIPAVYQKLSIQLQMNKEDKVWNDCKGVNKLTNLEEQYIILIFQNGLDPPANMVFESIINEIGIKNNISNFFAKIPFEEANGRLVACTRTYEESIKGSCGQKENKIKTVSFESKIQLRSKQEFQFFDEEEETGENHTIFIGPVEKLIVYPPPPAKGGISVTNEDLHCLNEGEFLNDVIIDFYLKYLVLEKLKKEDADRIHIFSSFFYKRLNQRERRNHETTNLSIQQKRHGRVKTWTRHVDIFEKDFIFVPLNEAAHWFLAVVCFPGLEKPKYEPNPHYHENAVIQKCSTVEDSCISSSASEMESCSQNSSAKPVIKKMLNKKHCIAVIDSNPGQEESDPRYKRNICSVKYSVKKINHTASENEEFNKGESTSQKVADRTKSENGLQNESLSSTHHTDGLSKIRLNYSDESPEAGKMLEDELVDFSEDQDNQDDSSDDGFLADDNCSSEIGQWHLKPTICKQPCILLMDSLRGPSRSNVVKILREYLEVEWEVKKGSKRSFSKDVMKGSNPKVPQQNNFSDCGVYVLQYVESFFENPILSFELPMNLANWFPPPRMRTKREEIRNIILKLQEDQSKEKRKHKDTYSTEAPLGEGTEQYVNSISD
The format is functional.

Assay [7] addresses T3, Heat shock factor protein 1. Kind of assay: HSF1 potentiators in luciferase reporter cells, confirmation, cell-based, NIH3T3, luminescence, dose retest (AID 435004).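 Also: stress induced by proteasome inhibitor MG132 added 30 min after compound; luciferase reporter driven by HSF1 response element in NIH3T3 cells; actives raise luminescence as potentiators of the MG132 stress response.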 The format is functional.
In assay [8] the target is T5, Sentrin-specific protease 7 (Homo sapiens, UniProt Q9BQF6).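 Also: Luminescence-based dose-response confirmation of ultra-high-throughput screening hits, measuring inhibition of SENP7.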
T5 sequence (Q9BQF6 whole entry): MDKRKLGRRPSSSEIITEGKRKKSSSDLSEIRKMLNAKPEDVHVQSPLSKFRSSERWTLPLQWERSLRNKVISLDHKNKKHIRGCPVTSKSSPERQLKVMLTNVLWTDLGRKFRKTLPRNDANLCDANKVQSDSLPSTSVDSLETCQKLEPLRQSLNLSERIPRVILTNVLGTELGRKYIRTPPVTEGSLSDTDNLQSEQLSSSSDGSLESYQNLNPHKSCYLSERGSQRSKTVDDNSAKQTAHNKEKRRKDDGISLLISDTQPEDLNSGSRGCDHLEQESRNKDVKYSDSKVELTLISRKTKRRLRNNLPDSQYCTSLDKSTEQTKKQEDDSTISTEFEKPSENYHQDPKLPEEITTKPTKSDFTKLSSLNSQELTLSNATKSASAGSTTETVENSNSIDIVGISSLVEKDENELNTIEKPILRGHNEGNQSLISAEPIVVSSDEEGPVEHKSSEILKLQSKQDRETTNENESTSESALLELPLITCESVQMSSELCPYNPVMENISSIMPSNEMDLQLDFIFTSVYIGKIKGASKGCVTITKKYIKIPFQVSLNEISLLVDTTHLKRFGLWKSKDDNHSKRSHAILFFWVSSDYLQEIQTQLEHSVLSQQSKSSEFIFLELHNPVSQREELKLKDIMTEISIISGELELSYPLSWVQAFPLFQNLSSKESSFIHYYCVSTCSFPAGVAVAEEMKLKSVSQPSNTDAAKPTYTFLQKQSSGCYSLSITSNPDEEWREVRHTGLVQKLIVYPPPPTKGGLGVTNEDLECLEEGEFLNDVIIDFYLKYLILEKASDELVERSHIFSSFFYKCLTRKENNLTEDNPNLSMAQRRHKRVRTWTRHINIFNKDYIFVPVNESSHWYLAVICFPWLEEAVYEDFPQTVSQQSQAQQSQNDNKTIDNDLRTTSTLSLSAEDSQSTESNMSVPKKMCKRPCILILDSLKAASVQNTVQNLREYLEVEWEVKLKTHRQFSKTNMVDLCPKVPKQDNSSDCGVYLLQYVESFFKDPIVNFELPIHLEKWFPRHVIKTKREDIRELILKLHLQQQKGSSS
The format is functional.

Assay [9] addresses T6, Sentrin-specific protease 8 (Homo sapiens, UniProt Q96LD8).
T6 sequence (Q96LD8 whole entry): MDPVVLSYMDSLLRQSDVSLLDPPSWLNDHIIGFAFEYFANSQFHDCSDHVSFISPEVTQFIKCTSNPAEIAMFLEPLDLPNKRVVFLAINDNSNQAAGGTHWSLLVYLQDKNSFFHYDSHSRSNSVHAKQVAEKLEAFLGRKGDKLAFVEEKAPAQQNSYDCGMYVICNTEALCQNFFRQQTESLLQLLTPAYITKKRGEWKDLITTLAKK
Type of assay: functional.

The next assay concerns the target T7, Caspase-3 (Homo sapiens, UniProt P42574).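 Also: Dose-response selectivity test against caspase-3 for candidate inhibitors of sentrin-specific proteases (SENPs).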
T7 sequence (P42574 whole entry): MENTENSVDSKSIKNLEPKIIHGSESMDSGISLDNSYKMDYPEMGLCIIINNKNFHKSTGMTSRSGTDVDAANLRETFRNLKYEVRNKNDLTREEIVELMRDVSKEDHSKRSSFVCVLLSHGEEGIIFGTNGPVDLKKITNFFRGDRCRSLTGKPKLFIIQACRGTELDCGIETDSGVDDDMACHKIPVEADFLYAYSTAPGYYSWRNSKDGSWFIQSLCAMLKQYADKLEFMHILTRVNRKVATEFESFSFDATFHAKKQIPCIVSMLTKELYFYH
Type of assay: functional.

Molecules are shown by their SMILES. Activity calls are given as the source filed them. Rule as the data show it, for most assays here: actives have a measured EC50 and inactives only a lower limit. Where only a bound is given, the exact number is not on record here.

As usually defined, the EC50 is the concentration giving half of the maximal effect. As for `CCOc1ccc(NC(=O)CC2C(=O)Nc3ccccc3N2C(=O)c2ccccc2)cc1` (stereo unspecified), the EC50 in the assay “cells [1]” and in “cells [2]” was > 350 µM (not active) in each case.

On to `CCNC(=O)c1cc2c(=O)n3cccc(C)c3nc2n(Cc2ccc(C)cc2)c1=N`, for which the EC50 in assay [3] is > 300 µM (not active); in assay [4], 45.5 µM (active).

As for `C=CCOc1ccc(C(c2c(C)n(C)n(-c3ccccc3)c2=O)c2c(C)n(C)n(-c3ccccc3)c2=O)cc1`, the half-maximal effective concentration (EC50) in assay [5] was > 195 µM (not active).

Take `CCOC(=O)C1=C(C)OC(N)=C(C#N)C1c1ccc(O)c(OC)c1` (stereo unspecified): the EC50 in assay [3] and in assay [4] was > 300 µM (not active) in each case.

With `CCCCc1nnc(NC(=O)c2ccc3nc(O)c(O)nc3c2)s1`, the EC50 in “cells [1]” and in “cells [2]” was > 350 µM (not active) throughout.

Consider `Cc1ccc(CN(C)C(=O)CC2C(=O)NCCN2CC2CCCCC2)cc1` (stereo unspecified), for which the EC50 in [3] is 175 µM (active); in [4], > 300 µM (not active).

With `COc1ccc(Cc2nnc(SCC(=O)NC3CCCCC3)n2C)cc1`, the concentration giving a half-maximal response (EC50) in the assay “cells [1]” and in “cells [2]” was > 350 µM (not active) each time.

As for `CC(C)c1cc(-c2cc(C(=O)NCc3ccccc3)on2)nc(NC2CCCC2)n1`, the EC50 in “cells [1]” and in the assay “cells [2]” was > 350 µM (not active) throughout.

For the molecule `CCOC(=O)c1ccc(-n2c(CCC(=O)O)ccc2-c2ccc(F)cc2)cc1`, the EC50 in assay [3] and in assay [4] was > 300 µM (not active) in each case.

As for `C#Cc1ccc([C@@H]2C=C(C(=O)OCC=C)O[C@H](OCc3ccc(CO)cc3)C2)cc1`, in [5], the EC50 is listed as > 195 µM (not active).

Take `CNC(=O)Cn1nc(C)c2ccccc2c1=O`: the 50% effective concentration (EC50) in assay [5] was > 195 µM (not active).

Consider `COc1ccc(/C=N/NC(=O)CN(C)S(=O)(=O)c2ccc(NC(C)=O)cc2)cc1`, for which the EC50 in assay [5] was > 195 µM (not active).

As to `Cc1noc(C)c1CSc1ncnc2sc3c(c12)CCC3`, the EC50 in assay [5] is recorded as > 195 µM (not active).

As to `CCN1C(=O)/C(=C\N(C)C)NC1=S`, the values for the concentration for a half-maximal effect (EC50) in [3] and in [4] were 22.6 µM (active) and 154 µM (inconclusive), respectively.

As to `COc1ccc(CCC(=O)Nc2cccc(Cl)c2)cc1`, the EC50 in [3] and in assay [4] was > 300 µM (not active) each time.

With `CCc1ccc(OC(C)C(=O)N(Cc2ccco2)C2CCS(=O)(=O)C2)cc1` (stereo unspecified), the EC50 in [5] is > 195 µM (not active).

One may read the IC50 as the concentration needed to halve the response being measured. As for `Cc1ccc(C(=O)OCC(=O)c2ccc(Cl)s2)s1`, the 50% inhibitory concentration (IC50) in assay [6] is 24.6 µM (active); in [8] it was 7.61 µM (active); in [9], 29.7 µM (active); on Caspase-3 it was 18.9 µM (active). In addition, the concentration giving a half-maximal response (EC50) in assay [7] is 20.3 µM (active).

In the case of `Cc1noc(C)c1COC(=O)C1CC(O)CN1S(=O)(=O)c1ccc(Cl)cc1` (stereo unspecified), the EC50 in “cells [1]” and in “cells [2]” was > 350 µM (not active) throughout.

On to `Cn1c(C(=O)NN)cc2cc(OCc3ccccc3)ccc21`, for which the EC50 in assay [5] is given as > 195 µM (not active).

Consider `COc1ccccc1CC(=N)NO`, for which the EC50 in “cells [1]” and in the assay “cells [2]” was > 350 µM (not active) each time.
